Experiment: solvent given as SMILES

Nc1ccc2c(c1)C(=O)c1ccc(N)cc1C2=O
absorption maximum (in CC#N): 438 nm | absorption maximum (in CC(C)O): 484 nm | absorption maximum (in CCO): 477 nm | absorption maximum (in CCOC(C)=O): 433.4 nm | absorption maximum (in CO): 474 nm

CCCCCCc1ccsc1-c1cc2c3cc(-c4sccc4CCCCCC)c4nc(C(F)(F)C(F)(F)C(F)(F)F)nc5c(-c6sccc6CCCCCC)cc(c6cc(-c7sccc7CCCCCC)c7nc(C(F)(F)C(F)(F)C(F)(F)F)nc1c7c26)c3c45
absorption maximum (in C1CCOC1): 521 nm

CCCCN1C(=O)C2=C(c3ccc(Br)cc3)[N-]C(=O)C2=C1c1ccc(Br)cc1
absorption maximum (in ClCCl): 571 nm

Cc1cc(C)c(B(c2cc(-c3ccccc3)sc2-c2sc(-c3ccccc3)cc2P(=O)(c2ccccc2)c2ccccc2)c2c(C)cc(C)cc2C)c(C)c1
absorption maximum (in CO): 392 nm

CCCCC1=C(CCCC)c2cccc3c2c(cc2nc4ccccc4nc23)O1
absorption maximum (in ClCCl): 503 nm

C1=C(c2ccccc2)C2=Nc3c(-c4ccccc4)cc4n3[B-]3(Oc5ccccc5C1=[N+]23)Oc1ccccc1-4 (configuration not stated)
absorption maximum (in Cc1ccccc1): 728 nm

CC[N+]1(CC)CN2C(=N1)C(C(=O)O)=Cc1ccc(C)cc12
absorption maximum (in O): 370 nm

CCCCCCc1ccc2c3c(ccc2c1)O[B-](F)(F)[N+](c1cc([N+]2=Cc4c(ccc5cc(CCCCCC)ccc45)O[B-]2(F)F)cc([N+]2=Cc4c(ccc5cc(CCCCCC)ccc45)O[B-]2(F)F)c1)=C3
absorption maximum (in C1CCOC1): 418 nm | absorption maximum (in CC#N): 419 nm | absorption maximum (in Cc1ccccc1): 433 nm | absorption maximum (in ClCCl): 428 nm

CC[n+]1nc2cc3c4c(c2c2cc(F)ccc21)CCCN4CCC3
absorption maximum (in O): 494 nm

CCCCCCOc1cc(C=C2c3ccccc3-c3ccccc32)c(OCCCCCC)cc1C=C1c2ccccc2C=Cc2ccccc21
absorption maximum (in C1CCOC1): 397 nm

CCCC1=Cc2nc1ccc1[nH]c(cc1CCOC)c1nc(ccc3[nH]c2cc3CCC)C(CCC)=C1
absorption maximum (in Cc1ccccc1): 637 nm

Nc1ccc2c(c1)-c1ccccc1C2=O
absorption maximum (in C1CCCCC1): 386 nm | absorption maximum (in CC#N): 409 nm | absorption maximum (in CCO): 429 nm | absorption maximum (in c1ccccc1): 395 nm

O=c1oc2ccccc2cc1-c1nc2ccccc2o1
absorption maximum (in C1CCOC1): 354 nm | absorption maximum (in C1COCCO1): 357 nm | absorption maximum (in CC1CCCCC1): 356 nm | absorption maximum (in CC#N): 352 nm | absorption maximum (in CC(C)=O): 352 nm | absorption maximum (in CC(C)CO): 353 nm | absorption maximum (in CC(C)O): 354 nm | absorption maximum (in CCOC(C)=O): 352 nm | absorption maximum (in CN(C)C=O): 352 nm | absorption maximum (in CO): 352 nm | absorption maximum (in CS(C)=O): 354 nm | absorption maximum (in Cc1ccccc1): 360 nm | absorption maximum (in ClC(Cl)(Cl)Cl): 360 nm | absorption maximum (in ClC(Cl)Cl): 356 nm | absorption maximum (in OCCO): 354 nm

c1ccc(-c2cc(-c3ccc(N4c5ccccc5C(c5ccccc5)(c5ccccc5)c5ccccc54)cn3)nc(-c3ccccc3)n2)cc1
absorption maximum (in Cc1ccccc1): 378.85 nm

N#Cc1ccc(N(c2ccccc2)c2ccc3ccc4c(N(c5ccccc5)c5ccc(C#N)cc5)ccc5ccc2c3c54)cc1
absorption maximum (in ClCCl): 407 nm

COc1ccc(-c2cc3c(ccc4sc5ccc6sccc6c5c43)s2)cc1
absorption maximum (in ClCCl): 357 nm

Oc1ccc(-c2nc(-c3ccccc3)c(-c3ccccc3)[nH]2)cc1
absorption maximum (in CO): 295 nm

NS(=O)(=O)c1ccc(N2N=C(c3ccc(O)cc3)CC2c2ccc([N+](=O)[O-])cc2)cc1 (configuration not stated)
absorption maximum (in C1CCOC1): 353 nm | absorption maximum (in C1COCCO1): 353 nm | absorption maximum (in CC#N): 352 nm | absorption maximum (in CC(C)O): 352 nm | absorption maximum (in CCO): 352 nm | absorption maximum (in CCOC(C)=O): 352 nm | absorption maximum (in CN(C)C=O): 355 nm | absorption maximum (in CO): 351 nm | absorption maximum (in CS(C)=O): 358 nm | absorption maximum (in O): 354 nm

c1ccc2c(c1)-c1ccccc1C21c2cc(-c3ccc(-n4c5ccccc5c5ccccc54)cc3)ccc2Sc2ccc(-c3ccc(-n4c5ccccc5c5ccccc54)cc3)cc21
absorption maximum (in ClCCl): 341 nm

Cc1cc(C2=C(c3c(C)sc(-c4ccc(-c5nc(-c6ccccc6)c(-c6ccccc6)[nH]5)cc4)c3C)C(F)(F)C(F)(F)C2(F)F)c(C)s1
absorption maximum (in C1CCOC1): 336 nm

COC(=O)c1noc(-c2ccccc2)c1Br
absorption maximum (in C1CCCCC1): 307 nm

c1ccc(-n2c3ccccc3c3cc(-n4ccc5cc(-c6cccc7c6-c6ccccc6C7(c6ccccc6)c6ccccc6)ccc54)ccc32)cc1
absorption maximum (in ClCCl): 325 nm

CC1=CC(C)=[N+]2C1=C(c1ccc(N(C)C)cc1)c1c(C)cc(/C=C/c3ccc(N(C)C)cc3)n1[B-]2(F)F
absorption maximum (in CCOCC): 591 nm

CCn1c(-c2ccc(-c3ccc4c(c3)C3(c5ccccc5-c5ccccc53)c3ccccc3-4)cc2)c(-c2ccc3ccccc3c2)c(-c2ccc3ccccc3c2)c1-c1ccc(-c2ccc3c(c2)C2(c4ccccc4-c4ccccc42)c2ccccc2-3)cc1
absorption maximum (in CCOC(C)=O): 326 nm

C(S/C=C/c1ccc(/C=C/SC=C(c2ccccc2)c2ccccc2)cc1)=C(c1ccccc1)c1ccccc1
absorption maximum (in ClCCl): 366 nm

CN(C)c1ccc(/C=C/c2ccc(-c3cc(-c4ccccn4)nc(-c4ccccn4)c3)cc2)cc1
absorption maximum (in C1CCOC1): 375 nm | absorption maximum (in C1COCCO1): 369 nm | absorption maximum (in CC#N): 379 nm | absorption maximum (in CCO): 379 nm | absorption maximum (in ClCCl): 381 nm

CCCCOc1c(C=C2Sc3ccccc3N2C)c(=O)c1=O
absorption maximum (in CCO): 442 nm

CC1(C)c2ccccc2N(c2ccc3c(c2)c2ccccc2c2nc4ccccc4nc32)c2ccccc21
absorption maximum (in Cc1ccccc1): 382 nm

CC(C)[Si](C#CC1=CC2=c3cc(C#C[Si](C(C)C)(C(C)C)C(C)C)c4nc(C(F)(F)C(F)(F)C(F)(F)F)nc5c(C#C[Si](C(C)C)(C(C)C)C(C)C)cc(c3c54)C3=CC(C#C[Si](C(C)C)(C(C)C)C(C)C)=C4N=C(C(F)(F)C(F)(F)C(F)(F)F)N=C1C4C32)(C(C)C)C(C)C (configuration not stated)
absorption maximum (in C1CCOC1): 516 nm

Nc1nc2c([nH]c(=O)n2[C@H]2C[C@H](O)[C@@H](CO)O2)c(=O)[nH]1
absorption maximum (in O): 294.99 nm

CCC/N=C/c1cc2ccc(N(C)C)cc2cc1OC
absorption maximum (in C1CCOC1): 369 nm | absorption maximum (in CC#N): 369 nm | absorption maximum (in CC(C)O): 450 nm | absorption maximum (in CCOC(C)=O): 369 nm | absorption maximum (in CN(C)C=O): 374 nm | absorption maximum (in CS(C)=O): 376 nm | absorption maximum (in Cc1ccccc1): 369 nm | absorption maximum (in ClCCl): 368 nm | absorption maximum (in O): 438 nm

CCCCCCCCCc1csc2cc(-c3cc(-c4cc5scc(CCCCCCCCC)c5s4)c4ccc5c(-c6cc7scc(CCCCCCCCC)c7s6)cc(-c6cc7scc(CCCCCCCCC)c7s6)c6ccc3c4c65)sc12
absorption maximum (in ClC(Cl)Cl): 429 nm

C[n+]1ccc(/C=C/c2cc[n+](C)cc2)cc1
absorption maximum (in CC#N): 317 nm

CC1CC=C(c2ccc(-c3ccc(C#N)s3)s2)CC1 (configuration not stated)
absorption maximum (in C1CCOC1): 357 nm | absorption maximum (in CC#N): 355 nm | absorption maximum (in CCCCCC): 356 nm | absorption maximum (in CCO): 358 nm | absorption maximum (in OCCOCCO): 366 nm | absorption maximum (in c1ccncc1): 363 nm

CN(C)c1ccc(C#Cc2ccc(C#Cc3ccc(C#Cc4ccccc4C#N)cc3C#N)cc2C#N)cc1
absorption maximum (in C1CCOC1): 422 nm | absorption maximum (in CC#N): 413 nm | absorption maximum (in CN(C)C=O): 426 nm | absorption maximum (in ClC(Cl)Cl): 425 nm | absorption maximum (in c1ccccc1): 426 nm

C=C[Si](c1c2ccccc2cc2ccccc12)(c1c2ccccc2cc2ccccc12)c1c2ccccc2cc2ccccc12
absorption maximum (in ClC(Cl)Cl): 404 nm

C(=C\c1ccc(-c2ccccc2)cc1)/c1ccc(Oc2ccc3ccccc3c2-c2c(Oc3ccc(/C=C/c4ccc(-c5ccccc5)cc4)cc3)ccc3ccccc23)cc1
absorption maximum (in ClCCl): 328 nm

COc1ccc(-c2nc3c(ccc4ccccc43)oc2=O)cc1
absorption maximum (in c1ccccc1): 410 nm

— the Deep4Chem optical property database
